Test results as given in ChEMBL document CHEMBL5724558, “Image-based profiling of drug vulnerabilities in CRC organoids” (2024).
“And” between values parts separate entries of the source, which are not always exact repeats. Equal entries are not always repeated. Square brackets hold non-standard residues; d marks the D form. Peptide text beside a SMILES is read from it. Arg(Me) = CNC(=N)NCCC[C@H](N)C(=O)O; d4Pal = N[C@H](Cc1ccncc1)C(=O)O; azaGly = NNC(=O)O

Columns and labels:
Format in all cases: functional, Homo sapiens
Design in all cases: dose or concentration left out as unconfirmed
Colon cancer organoid [1] = test: (§1) Image-based profiling of donated chemical probes and chemogenomic kinase set in O21 CRC organoid. Image analysis is performed on the sum area metric, and the data were normalized to the DMSO control. After imaging the organoid viability is measured using the OneGloEX Luciferase Assay System. The normalized viability data and sum area are reported.
Colon cancer organoid [2] = test: as §1, with “O09” for “O21”
Colon cancer organoid [3] = test: as §1, with “O06” for “O21”

SMILES | Cell Viability (Colon cancer organoid [1]; Replication number 1) | Cell Viability (Colon cancer organoid [1]; Replication number 2) | Cell Viability (Colon cancer organoid [2]; Replication number 1) | Cell Viability (Colon cancer organoid [2]; Replication number 2) | Cell Viability (Colon cancer organoid [3]; Replication number 1) | Cell Viability (Colon cancer organoid [3]; Replication number 2)
N#Cc1cnc(Nc2cc(NC[C@H]3CNCCO3)c(C(F)(F)F)cn2)cn1 [SRA-737] | 21.4207% and 61.8815% | 26.4159% and 74.8471% | 93.3475% and 86.0215% | 90.1274% and 73.6966% | 47.9437% and 94.589% | 63.1754% and 83.4961%
CN(C(=O)c1ccccc1)c1cc(N(C)c2ccc3c(c2)CCc2ccc(C(=O)NCCN4CCOCC4)cc2C3=O)ccc1F [FM-743] | 111.27% and 106.402% | 83.0534% and 97.3827% | 89.1217% and 99.5999% | 73.0037% and 91.594% | 90.1876% and 101.781% | 105.862% and 118.933%
CCNC(=O)c1cc2c(N3CCOCC3C)ccnc2[nH]1 (stereo unspecified) | 130.503% and 111.772% | 91.1701% and 91.3265% | 68.1497% and 105.84% | 64.0482% and 77.4005% | 98.3654% and 112.881% | 119.727% and 97.8383%
CO[C@H]1CNC[C@@H](OCC2CCC(F)(F)CC2)[C@@H]1Nc1ncc(-c2cncc(C)c2)c2cc(C)c(=O)[nH]c12 | 117.954% and 107.577% | 97.9494% and 89.6778% | 183.516% and 118.934% | 127.49% and 119.734% | 159.604% and 115.973% | 145.077% and 98.9379%
CCOc1ccn(-c2ccc(F)cc2)c(=O)c1C(=O)Nc1ccc(Oc2ccnc(N)c2Cl)c(F)c1 [BMS-777607] | 134.256% and 110.941% | 106.617% and 115.725% | 102.993% and 102.228% | 97.5395% and 82.0651% | 96.7201% and 108.61% | 116.766% and 115.578%
COc1c(C)cc(NC(=O)c2nn(Cc3ccc(F)cc3)c3c2CN(C(=O)c2ccc[nH]2)C[C@]3(C)C(N)=O)cc1C | 89.287% and 106.401% | 91.8219% and 96.6587% | 100.506% and 104.328% | 74.723% and 85.5242% | 208.8% and 152.94% | 183.011% and 147.451%
Cc1cc2c(-c3ccco3)cnc(N[C@@H]3CCN(C)C[C@H]3C(=O)NC3CCCCC3)c2[nH]c1=O [GSK789] | 106.004% and 111.859% | 101.857% and 104.521% | 34.6914% and 67.3378% | 49.9263% and 76.5266% | 45.8732% and 77.9757% | 46.7874% and 82.8928%
CC(C)(C)c1cc(NC(=O)Nc2ccc(-c3cn4c(n3)sc3cc(OCCN5CCOCC5)ccc34)cc2)no1 [QUIZARTINIB] | 67.5016% and 73.0314% | 71.418% and 77.7258% | 85.316% and 55.6023% | 92.2589% and 77.476% | 39.693% and 48.7411% | 34.5672% and 63.5476%
OCCn1cc(-c2ccc3c(c2)CCC3=NO)c(-c2ccncc2)n1 | 88.6835% and 115.401% | 96.5689% and 114.574% | 111.659% and 102.228% | 89.8993% and 62.6286% | 89.1031% and 90.5828% | 141.492% and 108.175%
O=C(Nc1ccc(-c2ccnc(Nc3ccc(N4CCOCC4)cc3)n2)cc1)[C@@H]1CCCN1 | 122.386% and 130.453% | 118.022% and 143.361% | 74.06% and 64.3291% | 67.524% and 79.6356% | 113.887% and 133.092% | 82.4971% and 82.4679%
N#CN1CC[C@@H](C(=O)Nc2nc3c(s2)CN(C(=O)CN=[N+]=[N-])CC3)C1 [JYQ88] | 106.224% and 86.2132% | 132.659% and 94.3236% | 58.2871% and 66.775% | 121.196% and 102.102% | 45.8886% and 74.332% | 68.3691% and 90.3412%
O=C(O)c1ccc2c(c1)nc(Nc1cccc(Cl)c1)c1ccncc12 [SILMITASERTIB] | 103.567% and 112.056% | 102.008% and 128.967% | 75.9271% and 48.6208% | 96.2856% and 65.3282% | 95.4776% and 72.7779% | 97.8% and 96.4524%
CN(C)C(=O)/C(C#N)=C/c1ccc(-c2nc3cnc4c(ccn4C)c3n2C2CCCCC2)o1 | 100.887% and 101.443% | 86.9771% and 102.576% | 117.89% and 123.735% | 132.247% and 113.588% | 94.8079% and 114.901% | 118.022% and 96.0735%
Cc1sc2c(c1C)C(c1ccc(Cl)cc1)=N[C@H](CC(=O)OC(C)(C)C)c1nnc(C)n1-2 | 103.643% and 116.982% | 106.671% and 110.621% | 84.3348% and 91.1128% | 66.0131% and 88.6601% | 124.069% and 114.282% | 126.933% and 90.5736%
CN(C)CCOc1ccc(-c2nc(-c3ccncc3)c(-c3ccc4c(c3)CC/C4=N\O)[nH]2)cc1 [SB590885] | 87.754% and 100.348% | 97.8507% and 97.8769% | 91.6254% and 70.3132% | 62.6087% and 63.1686% | 179.76% and 135.095% | 115.548% and 114.756%
Cc1noc(C)c1-c1cnc2c(-c3ccc(C(=O)O)cc3)cn([C@@H](C)c3ccccn3)c2c1 [PLX-51107] | 101.544% and 130.503% | 74.8766% and 126.73% | 42.9449% and 37.558% | 38.2971% and 35.6351% | 28.5018% and 57.9866% | 31.105% and 59.0281%
CNC(=N)NCCC[C@H](NC(=O)[C@H](CC(C)C)NC(=O)NNC(=O)[C@H](Cc1ccccc1)NC(=O)[C@H](CO)NC(=O)[C@H](CC(N)=O)NC(=O)[C@@H](Cc1ccncc1)NC(=O)[C@H](N)Cc1ccc(O)cc1)C(=O)N[C@@H](Cc1ccccc1)C(N)=O [KISS1-305] (H-[dY][d4Pal]NSF[azaGly]L[Arg(Me)]F-NH2) | 121.353% and 98.3829% | 105.015% and 111.735% | 111.929% and 98.6727% | 102.809% and 106.608% | 103.915% and 128.337% | 108.799% and 104.471%
c1ccc2oc(-c3csc(C4CCN(Cc5nc6ncccc6[nH]5)CC4)n3)cc2c1 | 94.2166% and 105.311% | 87.22% and 87.1856% | 82.621% and 84.4067% | 113.991% and 112.807% | 71.3349% and 100.567% | 106.728% and 127.102%
CNc1cc(Oc2cc(C(=O)Nc3cc(N4CCN(C)CC4)cc(C(F)(F)F)c3)ccc2C)ncn1 | 91.6844% and 105.366% | 86.288% and 119.755% | 67.5725% and 54.8543% | 89.2328% and 78.5558% | 159.785% and 126.415% | 134.323% and 110.437%
CC(=O)Nc1c(F)cc(C(=O)N[C@H]2CC[C@H](O)CC2)cc1O[C@@H](C)c1ccccc1 [GSK046] | 120.66% and 109.131% | 123.541% and 110.129% | 43.6665% and 86.4699% | 69.7579% and 96.7486% | 114.325% and 118.785% | 117.277% and 127.102%
CC(=O)N1CCC(c2ccc(C(=O)NC3=NCCN3)cc2C(F)(F)F)CC1 [BI 0054] | 108.593% and 93.1436% | 106.585% and 84.6939% | 145.728% and 140.005% | 185.058% and 111.866% | 118.453% and 112.646% | 54.9204% and 58.7504%
CCOc1ccc(S(=O)(=O)Nc2ccc(Cl)cc2C#Cc2cnc(C(=O)[O-])cc2OC)c2ncccc12.[K+] | 102.626% and 139.142% | 112.375% and 81.0673% | 79.533% and 90.784% | 112.265% and 100.119% | 90.5182% and 89.6356% | 107.269% and 105.718%
CCOC(=O)Nc1cc(-c2ccc(C)c(NS(C)(=O)=O)c2)nn2c(C)nnc12 | 101.464% and 109.34% | 124.525% and 131.026% | 56.4078% and 39.4127% | 74.2439% and 53.3101% | 97.2241% and 83.1141% | 52.6014% and 56.6383%
CNCCN1CCC(OCc2ccccc2)CC1 | 118.771% and 101.11% | 99.3774% and 100.418% | 67.0161% and 91.8083% | 91.8334% and 102.344% | 119.99% and 102.443% | 115.41% and 100.611%
CCC(=O)N1CCOc2c(cc(-c3ccc(OC)c(OC)c3)cc2OCC2CCCN(C)C2)C1 (stereo unspecified) | 115.467% and 112.867% | 97.0638% and 103.64% | 89.2152% and 99.2272% | 160.901% and 114.888% | 144.88% and 142.792% | 105.633% and 74.0839%
Cn1cc(C2=C(c3cn(C4CCN(Cc5ccccn5)CC4)c4ccccc34)C(=O)NC2=O)c2ccccc21 [ENZASTAURIN] | 107.446% and 117.631% | 96.9547% and 121.483% | 88.965% and 63.5811% | 82.186% and 57.4996% | 30.0951% and 84.3511% | 45.1765% and 67.455%
